In US9212361B2, “Methods and pharmaceutical compositions for the treatment of hypertension” (INSERM, priority 2013, dated 2015):

Experiments:
[1] = target: T1, MR (Rattus norvegicus, UniProt P22199); assay: NGAL expression in dendritic cells incubated with aldo +/- spironolactone; assay type: cell-based; conditions: 24 hr
T1 construct: endogenous in cells; host or cells: dendritic cells differentiated with GM-CSF from bone marrow stem cells of male SD rats
T1 sequence (P22199 1-981): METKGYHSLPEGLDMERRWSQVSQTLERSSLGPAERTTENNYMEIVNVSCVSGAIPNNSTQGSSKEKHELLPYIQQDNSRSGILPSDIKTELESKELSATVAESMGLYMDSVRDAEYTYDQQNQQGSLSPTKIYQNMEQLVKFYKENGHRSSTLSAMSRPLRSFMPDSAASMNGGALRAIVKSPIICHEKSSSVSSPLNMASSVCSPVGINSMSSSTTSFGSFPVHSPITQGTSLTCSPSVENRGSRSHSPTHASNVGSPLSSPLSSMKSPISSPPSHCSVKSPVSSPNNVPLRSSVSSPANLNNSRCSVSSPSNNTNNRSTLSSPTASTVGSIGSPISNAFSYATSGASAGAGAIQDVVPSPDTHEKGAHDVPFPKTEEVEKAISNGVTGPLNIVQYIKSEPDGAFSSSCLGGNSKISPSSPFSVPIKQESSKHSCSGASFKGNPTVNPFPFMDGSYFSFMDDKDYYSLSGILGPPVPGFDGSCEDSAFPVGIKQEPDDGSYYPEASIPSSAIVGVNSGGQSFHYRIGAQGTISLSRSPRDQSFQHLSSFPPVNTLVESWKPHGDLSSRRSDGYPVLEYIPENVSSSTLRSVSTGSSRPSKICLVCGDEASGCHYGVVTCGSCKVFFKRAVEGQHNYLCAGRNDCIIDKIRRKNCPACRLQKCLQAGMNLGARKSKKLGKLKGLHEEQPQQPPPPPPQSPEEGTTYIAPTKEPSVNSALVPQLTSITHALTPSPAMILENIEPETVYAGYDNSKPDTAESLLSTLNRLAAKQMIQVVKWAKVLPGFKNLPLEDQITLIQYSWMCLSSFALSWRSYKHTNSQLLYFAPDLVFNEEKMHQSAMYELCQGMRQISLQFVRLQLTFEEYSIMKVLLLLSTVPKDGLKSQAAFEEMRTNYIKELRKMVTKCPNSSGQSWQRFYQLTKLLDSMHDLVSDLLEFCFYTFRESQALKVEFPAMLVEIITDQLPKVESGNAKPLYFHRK
Experimental: (§1) FIG. 3. NGAL is an aldo/MR target in DCs (A) and macrophages (B). A:DCs were obtained from male SD rat bone marrow stem cells and differentiated during 6 days with GM-CSF. DCs were incubated with aldo (10 nM), spironolactone (5 μM), aldo plus spironolactone, or vehicle for 24 hr. *p<0.05 by ANOVA analysis (n=4); B: peritoneal macrophages from WT mice were stimulated or not with aldo (10 nM+/−RU28318 (MR antagonist). NGAL behaves similarly as MCP1 (monocy chemoattractant protein).
(§2) Macrophages are purified from abdominal cavity from mice, after 4 days of inflammation induced by thioglycollate injection. Dendritic cells are obtained after 7 days of incubation of bone marrow precursors cells (from mice bone marrow) with GM-CSF (granulocyte macrophage colony-stimulating factor).

[2] = target: T2, MR (Mus musculus, UniProt Q8VII8); assay: NGAL expression in peritoneal macrophages stimulated with aldo; assay type: cell-based; conditions: aldo 10 nM; peritoneal macrophages from WT mice
T2 construct: Macrophages are purified from abdominal cavity from mice; endogenous in cells; host or cells: thioglycollate-elicited peritoneal macrophages from WT mice
T2 sequence (Q8VII8 1-978): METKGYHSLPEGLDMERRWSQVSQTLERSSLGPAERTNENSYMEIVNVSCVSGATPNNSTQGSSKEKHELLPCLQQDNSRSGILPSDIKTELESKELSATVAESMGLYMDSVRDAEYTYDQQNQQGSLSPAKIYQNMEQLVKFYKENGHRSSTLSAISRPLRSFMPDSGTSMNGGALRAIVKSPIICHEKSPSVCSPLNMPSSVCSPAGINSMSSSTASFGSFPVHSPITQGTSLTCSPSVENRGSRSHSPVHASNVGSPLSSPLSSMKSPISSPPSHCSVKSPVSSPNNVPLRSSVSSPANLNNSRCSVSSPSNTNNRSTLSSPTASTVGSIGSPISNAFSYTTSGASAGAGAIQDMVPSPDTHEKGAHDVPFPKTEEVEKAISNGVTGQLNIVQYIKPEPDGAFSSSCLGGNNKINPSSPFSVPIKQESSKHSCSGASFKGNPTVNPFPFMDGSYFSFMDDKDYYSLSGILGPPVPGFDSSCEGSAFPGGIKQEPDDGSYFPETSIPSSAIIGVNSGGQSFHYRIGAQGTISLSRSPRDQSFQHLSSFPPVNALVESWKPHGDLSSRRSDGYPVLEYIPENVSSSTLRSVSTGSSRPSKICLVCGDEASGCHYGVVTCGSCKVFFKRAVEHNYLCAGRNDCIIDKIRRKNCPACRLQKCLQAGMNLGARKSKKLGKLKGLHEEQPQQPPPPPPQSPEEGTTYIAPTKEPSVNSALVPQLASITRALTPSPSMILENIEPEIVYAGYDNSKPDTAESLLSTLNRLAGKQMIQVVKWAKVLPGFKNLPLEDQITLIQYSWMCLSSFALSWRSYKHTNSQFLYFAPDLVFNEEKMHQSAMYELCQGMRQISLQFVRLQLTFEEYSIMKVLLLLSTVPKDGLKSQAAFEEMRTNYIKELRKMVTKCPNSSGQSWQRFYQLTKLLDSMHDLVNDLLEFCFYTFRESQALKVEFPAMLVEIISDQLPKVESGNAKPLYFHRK
Experimental: as §1, §2

Row | aldo-induced NGAL upregulation in dendritic cells ([1]; spironolactone 5 μM plus aldo 10 nM) | NGAL expression in dendritic cells ([1]; aldo 10 nM) | NGAL expression in macrophages [2] | SMILES
1 | blocked |  |  | CC(=O)S[C@@H]1CC2=CC(=O)CC[C@]2(C)[C@H]2CC[C@@]3(C)[C@@H](CC[C@@]34CCC(=O)O4)[C@H]12 [spironolactone]
2 |  | upregulated | aldo/MR target gene in the macrophages | C[C@]12CCC(=O)C=C1CC[C@@H]1[C@@H]2[C@@H](O)C[C@]2(C=O)[C@@H](C(=O)CO)CC[C@@H]12 [aldo, Aldosterone]
